Measured values taken from publication PMC4575908 (Chemistry & biology, 2015).
Values joined by “and” are separate entries in the source; they are usually repeats but may differ in a detail not shown here. Equal entries are not always repeated. Where two headings read alike, the source gives them in different places.

Legend:
patients = settings: cited from earlier work
[1] = tested on: CPT-11-induced diarrhea in mice; settings: CPT-11 50 mg/kg i.p. without inhibitor

## CCc1c2c(nc3ccc(OC(=O)N4CCC(N5CCCCC5)CC4)cc13)-c1cc3c(c(=O)n1C2)COC(=O)[C@]3(O)CC [CPT-11, Irinotecan]
patients; human, in vivo
  patients showing grade 3–4 diarrhea: 31%
patients; ref Food and Drug Administration package insert for irinotecan
  patients experiencing diarrhea: up to 88%
[1]; day 8, 50 mg/kg
  mice with bloody diarrhea: ~ 25% and 25%
[1]; day 9, 50 mg/kg
  mice with bloody diarrhea: ~ 60% and 60%
[1]; day 10
  mice with bloody diarrhea: 100%
